pIC50: −log10 of the molar value.
Assays:
Trypanothione reductase = Trypanothione reductase (Trypanosoma cruzi, UniProt P28593); test: Inhibition of trypanothione reductase from Trypanosoma cruzi, in the presence 57 uM of trypanothione T(SH)2
[1] = (§1) Michaelis constant was determined.; format: ADME
[2] = Catalytic rate constant was determined; format: ADME
[3] = as §1

Chain of Trypanothione reductase (P28593 whole entry): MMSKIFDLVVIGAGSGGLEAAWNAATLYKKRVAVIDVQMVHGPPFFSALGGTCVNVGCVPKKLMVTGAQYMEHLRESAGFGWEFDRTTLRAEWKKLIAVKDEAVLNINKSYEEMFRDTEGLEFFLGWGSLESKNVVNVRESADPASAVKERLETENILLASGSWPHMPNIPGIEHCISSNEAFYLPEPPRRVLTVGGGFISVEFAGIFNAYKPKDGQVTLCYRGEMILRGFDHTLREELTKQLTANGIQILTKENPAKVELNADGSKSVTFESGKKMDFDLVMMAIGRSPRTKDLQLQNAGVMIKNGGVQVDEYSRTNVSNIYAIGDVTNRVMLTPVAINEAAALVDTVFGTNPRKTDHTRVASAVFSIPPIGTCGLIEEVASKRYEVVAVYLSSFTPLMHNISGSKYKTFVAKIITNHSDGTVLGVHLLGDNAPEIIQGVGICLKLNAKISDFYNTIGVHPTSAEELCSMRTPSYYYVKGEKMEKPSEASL

Row | SMILES | pIC50 (Trypanothione reductase) | also measured
1 | CN1CCN(CCC(=O)Nc2cc(Br)ccc2Sc2cccc(NC(=O)CCCC(=O)NCc3ccccc3)c2)CC1 | 4.46 | 
2 | CN1CCN(CCC(=O)Nc2cc(Br)ccc2Sc2cccc(NC(=O)CCCC(=O)NCC34C[C@H]5C[C@@H](C3)C[C@@H](C4)C5)c2)CC1 | < 4.22 | 
3 | CN1CCN(CCC(=O)Nc2cc(Br)ccc2Sc2cccc(NC(=O)CCCCCC(=O)OCC3=C(Br)C(=O)c4ccccc4C3=O)c2)CC1 | 4.39 | Km [1]: 160 µM; k cat/Km [2]: 8400 M⁻¹ s⁻¹
4 | CN1CCN(CCC(=O)Nc2cc(Br)ccc2Sc2cccc(NC(=O)CCCC(=O)NCC3CCCCC3)c2)CC1 | 4.33 | 
5 | CC1=CC(=O)c2ccccc2C1=O [MENADIONE] |  | Km [3]: 882 µM; k cat/Km [2]: 50000 M⁻¹ s⁻¹
6 | CCCCCCCCCCCCCCCCNC(=O)CCCC(=O)Nc1cccc(Sc2ccc(Br)cc2NC(=O)CCN2CCN(C)CC2)c1 | < 4.22 | 
7 | CN1CCN(CCC(=O)Nc2cc(Br)ccc2Sc2cccc(NC(=O)CCCC(=O)NCc3ccccn3)c2)CC1 | < 4.22 | 
8 | CCN(CC)C(=O)CCCC(=O)Nc1cccc(Sc2ccc(Br)cc2NC(=O)CCN2CCN(C)CC2)c1 | < 4.22 | 
9 | CN1CCN(CCC(=O)Nc2cc(Br)ccc2Sc2cccc(NC(=O)CCCCCC(=O)Nc3ccc(N)c4c3C(=O)c3ccccc3C4=O)c2)CC1 | < 4.22 | 
10 | CN1CCN(CCC(=O)Nc2cc(Br)ccc2Sc2cccc(NC(=O)CCCC(=O)NCC3CCCO3)c2)CC1 (centres undefined) | < 4.22 | 
11 | CN1CCN(CCC(=O)Nc2cc(Br)ccc2Sc2cccc(NC(=O)CCCCCC(=O)Nc3cccc(Sc4ccccc4[N+](=O)[O-])c3)c2)CC1 | < 4.22 | 

Second part, led by results:

Row | pIC50 (Trypanothione reductase) | SMILES | also measured
12 | 4.70 | CN1CCN(CCC(=O)Nc2cc(Br)ccc2Sc2cccc(NC(=O)CCCC(=O)NCCc3ccccc3)c2)CC1 | 
13 | 5.74 | CN1CCN(CCC(=O)Nc2ccccc2Sc2cccc(NC(=O)CCCCCC(=O)Nc3cccc(Sc4ccccc4N)c3)c2)CC1 | 
14 | 6.26 | CN1CCN(CCC(=O)Nc2cc(Br)ccc2Sc2cccc(NC(=O)CCCC(=O)Nc3cccc(Sc4ccc(Br)cc4NC(=O)CCN4CCN(C)CC4)c3)c2)CC1 | 
15 | 4.80 | CN1CCN(CCC(=O)Nc2cc(Br)ccc2Sc2cccc(NC(=O)CCCCCC(=O)Nc3cccc(Sc4ccccc4N)c3)c2)CC1 | 
16 | 4.60 | CN1CCN(CCC(=O)Nc2cc(Br)ccc2Sc2cccc(NC(=O)CCCC(=O)NCc3ccc4ccccc4c3)c2)CC1 | 
17 | 5.48 | CN(C)Cc1ccc(Nc2ccc(NC(=O)CCCCCC(=O)Nc3cccc(Sc4ccc(Br)cc4NC(=O)CCN4CCN(C)CC4)c3)c3c2C(=O)c2ccccc2C3=O)cc1 | 
18 | 4.55 | CN1CCN(CCC(=O)Nc2cc(Br)ccc2Sc2cccc(NC(=O)CCCC(=O)NC(c3ccccc3)c3ccccc3)c2)CC1 | 
19 | 4.64 | CCCCCCCNC(=O)CCCC(=O)Nc1cccc(Sc2ccc(Br)cc2NC(=O)CCN2CCN(C)CC2)c1 | 
20 | 4.48 | CN1CCN(CCC(=O)Nc2cc(Br)ccc2Sc2cccc(NC(=O)CCCC(=O)NCc3ccc4c(c3)OCO4)c2)CC1 | 
21 | 4.85 | CN1CCN(CCC(=O)Nc2cc(Br)ccc2Sc2cccc(NC(=O)CCCCCC(=O)Nc3ccccc3)c2)CC1 | 
